From patent US5445941A, “Method for screening anti-osteoporosis agents” (Eli Lilly and Company, priority 1993, dated 1995)
Entries after “also recorded” stand apart in the source; their conditions may differ.

Legend:
TGFβ-2 mRNA = conditions: T-47D and MDA-MB-231; cited from earlier work
TGFβ-3 promoter [1] = test: CAT reporter expression, TGFβ-3 promoter (pB-499), MG63 cells cotransfected with pRSVER
Procedure: (§5) Co-transfection experiments were performed in MG63 (human osteosarcoma) cells, using the ProFection Mammalian Transfection System (Promega). […] The cells were then refed with fresh 3:1 media containing 10% csFBS. Compounds to be evaluated for their ability to modulate reporter gene expression were added at the appropriate times and assayed as described below.
(§6) Cultures of MG63 cells were transiently co-transfected with pRSVER plasmid and either phTG12, pTGF-1, or pB2-499 using the ProFection system (Promega). For each transfected cell culture, DNA-containing calcium phosphate precipitates were added dropwise to each culture dish and mixed thoroughly in the media. The pH of the media was carefully maintained between pH 7.2 and pH 7.4. Transfected cell cultures were then incubated overnight in a 5% CO2 atmosphere at 37° C. For all cultures, the precipitate was removed after overnight incubation by aspirating the media from the culture dishes, followed by rinsing each dish twice with D-PBS. For each cotransfected cell line, the buffer was replaced with 10 ml fresh medium containing 10% csFBS and one of the following compositions:
(§7) a. 10 μl ethanol (hormone vehicle)=control;
(§8) b. 10 μl 17β-estradiol (Sigma) ("estradiol") at a concentration of 10^-4 M in ethanol;
(§9) d. 10 μl Tamoxifen (Sigma) at a concentration of 10^-4 M in ethanol.
(§10) After 24 h incubation with these hormonal preparations (or the vehicle control), cells were washed twice with D-PBS. The cells were then scraped from the culture dishes using a rubber policeman and 1 ml of D-PBS. Cells were collected by centrifugation at 8,000 rpm for 2 minutes in a tabletop centrifuge (MicroMax Model, IEC, Newark, N.Y.). The supernatant was removed and the cell pellets were resuspended in 150 μL of a 0.25M Tris-HCl solution (pH 7.8). Cells were lysed by three cycles of freezing in a dry ice/ethanol bath and thawing in a water bath at 37° C. water bath (for 3 minutes each cycle). Lysed cell preparations were centrifuged at 15,000 rpm for 5 minutes at 4° C. to remove cell debris. Supernatants containing the soluble cell lysate were transferred to a new set of tubes for assaying chloramphenicol acetyltransferase (CAT) activity.
Before performing CAT assays on such cell lysates, the protein content of each lysate was first determined using a commercially-available assay (BioRad Laboratories, Richmond, Calif.). […]

TGFβ-1 mRNA = conditions: HEC-50, 1% ctFBS; cited from earlier work
TGFβ-1 promoter = test: CAT reporter expression, TGFβ-1 promoter (phTG12), MG63 cells cotransfected with pRSVER
Procedure: as §5, §6, §7, §8, §9, §10
Before performing CAT assays on such cell lysates, the protein content of each lysate was first determined using a commercially-available assay (BioRad Laboratories, Richmond, Calif.). An amount of each cell lysate containing 100 μg total protein was then mixed with CAT assay buffer (0.4M Tris-HCl (pH 7.8)/ 0.5 mM acetyl-CoA (Boehringer Mannheim)/ 0.1 μCi D-threo-(dichloroacetyl-1,2-[^14 C]-chloramphenicol) for 15 hours. After this incubation, reactions were stopped by vigorously extracting the reaction mixture with 900 μL ethyl acetate. The organic and aqueous phases were separated by brief centrifugation at 14,000 rpm for 1 minute, and approximately 800 μL of the organic phase was transferred to a new set of tubes. Ethyl acetate was evaporated to concentrate the CAT-catalyzed reaction products.
Acetylated and unacetylated chloramphenicol species were resolved by thin layer chromatography using a mixture of 95:5 (v/v) chloroform:methanol as the ascending buffer.

LDL receptor promoter [2] = test: LDLR-Luc production in presence of ER (pLDLRLUC10 and pRSVER, HepG2 cells); format: cell-based, human; conditions: listed as estrogen
Excerpt: (§1) A 1546 base pair sequence of the human LDL receptor promoter was amplified using the polymerase chain reaction. A reaction mixture containing 20 picomoles each of the synthetic oligonucleotides:
(§2) The 1546 base pair fragment described above was isolated and cloned into the vector pSv2 containing firefly luciferase reporter gene that had been restriction enzyme digested to completion with NdeI and partially with HindIII. The resulting vector, pLDLRLUC10 contains the human LDL receptor promoter directing expression of the firefly luciferase gene, an ampicillin resistance marker and an origin of replication.
ATCC strain HepG2 cells were co-transfected with pLDLRLUC10 and pRSVER as described in Example IV.

[3] = test system: estrogen responsive elements; conditions: in vitro; cited from earlier work
TGFβ-3 promoter [4] = test: Dose response of TGFβ-3 promoter (pB-301) CAT induction in MG63 cells with pRSVER; conditions: for CAT activity: vehicle 0.85
Procedure: For each group of twelve cultures, the particular estrogen or antiestrogen compound was tested in replicate cultures at […], varying in tenfold increments from 10^-9 M to 10^-5 M, as well as one set of replicate cultures treated with vehicle only (for a total of twelve cultures per experimental treatment). Hormones were dissolved in ethanol and applied to the cultures in media as described above. The four estrogens and antiestrogens tested were:
a. 17β-estradiol (Sigma Chemical Corp., St. Louis, Mo.);

[5] = test system: estrogen responsive element (ERE) of the vitellogenin promoter; test: Luciferase reporter induction, pGL2ERELUC (vitellogenin ERE) and pRSVER in MG63 cells; format: cell-based, human; conditions: for reporter gene expression, pGL2ERELUC: control 1.7
Excerpt: Complementary oligonucleotides corresponding to the estrogen-responsive element (ERE) from the Xenopus laevis vitellogenin Az gene promoter (corresponding to positions -341 to -310; Metzger et al., 1988, Nature 334: 31-36) were designed, synthesized and annealed to form a double-stranded region that is an estrogen responsive element essentially as described in Example I. A sequence comprising an XhoI restriction enzyme recognition site was synthesized to be flanking the ERE sequences, the element having the following nucleotide sequence (shown as SEQ ID NOS:8 and 9, respectively):
The double-stranded ERE was subcloned into XhoI-digested […] (Promega) whereby the luciferase gene was placed under the transcriptional influence of the ERE. This plasmid was designated pGL2ERELUC and used in further experiments as described below (Example VI).
Similar assays were performed using cultures of MG63 cells transiently transfected with pGL2ERELUC and pRSVER.
(§3) Transfected cells were treated with varying amounts and combinations of hormones and then rinsed twice with D-PBS. Cells were then lysed upon incubation with 250 μL of eukaryotic cell lysis reagent (as described in Example VI) at 4° C. for 20 min and transferred to microcentrifuge tubes by scraping with a rubber policeman. Cell lysates were centrifuged at 14,000 rpm for 1 minute to remove cell debris. Cell extracts (supernatant) were then assayed for protein content and luciferase activities.
(§4) Luciferase assays were performed as follows. 50 μL of each cell extract was added to 100 μL of reagent A buffer (containing 4.0 mM ATP/15 mM MgSO4 / 30 mM tricine buffer (pH 7.8)/ 10 mM DTT) in individual wells of a microtiter plate. 100 μL of 1 mM D(-)-luciferin (in 0.1M KPO4 (pH 7.8); Boehringer Mannheim) were added to each well and the amount of light produced measured by using a ML3000 microtiter plate luminometer (under conditions of integrate flash mode, high gain, integrate window=10 seconds, at a temperature of 22° C.). Luciferase activities were calculated as total light output relative to protein content in each cell lysate sample.

TGFβ-3 promoter [6] = test: Reporter induction, pB-301 (TGFβ-3 promoter) and pRSVER in MG63 cells; format: cell-based, human; conditions: control 0.7
Procedure: These assays were performed essentially as in Example V.
as §3, §4

TGFβ-3 promoter [7] = test: TGFβ-3 activation in CHO cells (pB-301 and pRSVER, CAT); format: cell-based, hamster; conditions: 24 h, 0 M 10.6
LDL receptor promoter [8] = test: LDLR-Luc production in the absence of ER (pLDLRLUC10 and pRSV vector, HepG2 cells); format: cell-based, human; conditions: for LDLR-Luc production: no ER, 0 M 1597
Excerpt: as §1, §2
ATCC strain HepG2 cells were co-transfected with pLDLRLUC10 and pRSV vector plasmid as described in Example IV.

TGFβ-3 promoter [9] = test: ER dependent induction of TGFβ-3 promoter (pB2-499) in MG63 cells; format: cell-based, human
Excerpt: It was known in the prior art that the ability of both estrogens and antiestrogens to influence TGFβ production is dependent on the expression of estrogen receptor (ER), but the level at which this influence is exerted was not known (i.e. transcriptional, translational or post-translational). A series of experiments were therefore performed to investigate the putative dependence on ER expression of induction of reporter gene expression using the TGFβ promoter-containing constructs of the invention.
Cultures of MG63 were prepared for co-transfection as in Example IV. One such culture was co-transfected with pB2-499 and pRSVER and another was co-transfected with pB2499 and pRSV vector plasmid (as a control).
(b) 17β-estradiol (10^-7 M)

[10] = test system: LDL receptor messenger RNA; conditions: in vivo; cited from earlier work
[11] = Homo sapiens, MG-63, 24 h, read-out: Fold Ind.

C[C@]12CC[C@@H]3c4ccc(O)cc4CC[C@H]3[C@@H]1CC[C@@H]2O [estradiol, 17β-estradiol]
TGFβ-2 mRNA expression (in words) (TGFβ-2 mRNA): reduced TGFβ-2 mRNA expression | fold induction at 0.1 µM (TGFβ-3 promoter [1]; [11]): 2.8 | Act. (relative CAT activity) (TGFβ-3 promoter [1]; TGFβ-3 promoter, 10 μl of 10^-4 M in 10 ml medium, 24 h, control 0.7): 2.1 | TGFβ-1 mRNA concentration (in words) (TGFβ-1 mRNA): Decreased concentrations of TGFβ-1 mRNA | fold induction at 0.1 µM (TGFβ-1 promoter; [11]): 0.7 | Act. (relative CAT activity) (TGFβ-1 promoter; TGFβ-1 promoter, 10 μl of 10^-4 M in 10 ml medium, 24 h, control […]): 4.7 | response of the TGFβ-1 promoter region (in words) (TGFβ-1 promoter; positions -1032 to +727): no response | induction of LDL receptor promoter/expression (in words) (LDL receptor promoter [2]): mediated by ER; also recorded: have the ability to induce LDL receptor expression | binding of estrogen receptor complex to estrogen responsive elements (in words) [3]: bind in vitro to DNA binding domains called estrogen responsive elements | CAT activity (TGFβ-3 promoter [4]; 10^-5 M, 24 h): 3.4 | CAT activity (TGFβ-3 promoter [4]; 10^-6 M, 24 h): 4.3 | CAT activity (TGFβ-3 promoter [4]; 10^-7 M, 24 h): 1.6 | CAT activity (TGFβ-3 promoter [4]; 10^-8 M, 24 h): 1.1 | CAT activity (TGFβ-3 promoter [4]; 10^-9 M, 24 h): 0.96 | ED50 (in words) (TGFβ-3 promoter [4]; MG63 cells): two orders of magnitude higher than that of raloxifene | TGFβ-3 promoter activation (in words) (TGFβ-3 promoter [4]; MG63 cells): least potent inducer | induction of reporter gene transcription/expression (TGFβ-3 promoter [4]; mg63 cells, 24 h): 4 fold | induction of vitellogenin gene transcription (in words) [5]: strongly induced | reporter gene expression, pGL2ERELUC ([5]; 10^-5 M): 6.5 | reporter gene expression, pGL2ERELUC ([5]; 10^-6 M): 6.2 | reporter gene expression, pGL2ERELUC ([5]; 10^-7 M): 5.9 | reporter gene expression, pGL2ERELUC ([5]; 10^-8 M): 5.5 | reporter gene expression, pGL2ERELUC ([5]; 10^-9 M): 5.8 | reporter gene expression, pB-301 (TGFβ-3 promoter [6]; 10^-5 M): 8.0 | reporter gene expression, pB-301 (TGFβ-3 promoter [6]; 10^-6 M): 5.2 | reporter gene expression, pB-301 (TGFβ-3 promoter [6]; 10^-7 M): 5.5 | reporter gene expression, pB-301 (TGFβ-3 promoter [6]; 10^-8 M): 3.2 | reporter gene expression, pB-301 (TGFβ-3 promoter [6]; 10^-9 M): 1.1 | CAT activity (TGFβ-3 promoter [7]; 10^-5 M): 33.3 | CAT activity (TGFβ-3 promoter [7]; 10^-6 M): 32.9 | CAT activity (TGFβ-3 promoter [7]; 10^-7 M): 29.4 | CAT activity (TGFβ-3 promoter [7]; 10^-8 M): 22.6 | CAT activity (TGFβ-3 promoter [7]; 10^-9 M): 11.9 | induction of LDLR promoter without ER (in words) (LDL receptor promoter [8]; at or below 10^-6 M, or high concentrations as worded, FIG. 16): No induction | LDLR-Luc production (LDL receptor promoter [8]; 10^-5 M): 2445 | LDLR-Luc production (LDL receptor promoter [8]; 10^-6 M): 1578 | LDLR-Luc production (LDL receptor promoter [8]; 10^-7 M): 1574 | LDLR-Luc production (LDL receptor promoter [8]; 10^-8 M): 1792 | LDLR-Luc production (LDL receptor promoter [8]; 10^-9 M): 1645 | effect of lack of ER expression (in words) (TGFβ-3 promoter [9]; lack of ER expression): virtually abolishes expression of TGFβ-3 | reporter gene expression, Control Plasmid (TGFβ-3 promoter [9]; no ER (pRSV vector), estradiol 10^-7 M, raloxifene 2×10^-6 M, vehicle 0.9): 1.0 | reporter gene expression, ER Expression Plasmid (TGFβ-3 promoter [9]; pRSVER, estradiol 10^-7 M, raloxifene 2×10^-6 M, vehicle 1.3): 4.6 | LDL receptor messenger RNA (in words) [10]: induces LDL receptor messenger RNA in vivo
